# Assay results from ChEMBL document CHEMBL1221333, “Design, synthesis, and biological evaluation of conformationally constrained glycerol 3-phosphate acyltransferase inhibitors” (Bioorg Med Chem, 2010).
# Columns and labels:
# [1] = Inhibition of GPAT at 40 ug/ml
# [2] = Inhibition of GPAT
inhibition [1] [%],IC50 [2] [µM],SMILES
17,,CCCCCCCCS(=O)(=O)N[C@@H]1CCC[C@H](C(=O)O)[C@H]1O (racemic)
23,,CCCCCCCCS(=O)(=O)N[C@H]1CCC[C@H](CC(=O)O)[C@@H]1O (racemic)
16,,CCCCCCCCS(=O)(=O)N[C@@H]1CC[C@H](CC(=O)O)[C@H]1O (racemic)
25,255,CCCCCCCCS(=O)(=O)N[C@@H]1CC[C@H](C(=O)O)[C@H]1O (racemic)
36,164,CCCCCCCCS(=O)(=O)N[C@H]1CCC[C@H](C(=O)O)[C@H]1O (racemic)
3,324,CCCCCCCCS(=O)(=O)N[C@H]1CC[C@H](C(=O)O)[C@@H]1O (racemic)
19,,CCCCCCCCS(=O)(=O)N[C@H]1CC[C@H](C(=O)O)[C@H]1O (racemic)
8,,CCCCCCCCS(=O)(=O)N[C@H]1CC[C@H](CC(=O)O)[C@@H]1O (racemic)
8,295,CCCCCCCCS(=O)(=O)N[C@H]1CC[C@H](CC(=O)O)[C@H]1O (racemic)
15,,CCCCCCCCS(=O)(=O)N[C@H]1[C@H](O)CC[C@H]1C(=O)O (racemic)
15,,CCCCCCCCS(=O)(=O)N[C@H]1CCC[C@H](C(=O)O)[C@@H]1O (racemic)
2,,CCCCCCCCS(=O)(=O)N[C@H]1CCC[C@H](CC(=O)O)[C@H]1O (racemic)
12,,CCCCCCCCS(=O)(=O)N[C@@H]1[C@@H](O)CC[C@H]1C(=O)O (racemic)
17,,CCCCCCCCS(=O)(=O)N[C@@H]1CCC[C@H](CC(=O)O)[C@H]1O (racemic)

SMILES,inhibition [1] [%],IC50 [2] [µM]
CCCCCCCCCS(=O)(=O)Nc1ccccc1C(=O)O,97,24.7
